Results from patent US7935826B2, “Insecticidal N-substituted (heteroaryl)cycloalkyl sulfoximines” (Dow AgroSciences LLC, priority 2006, dated 2011).

Columns and labels:
Type in all cases: in vivo
[1] = tested on: Cotton Aphid (Aphis gossypii); assay: Insecticidal test for cotton aphid in foliar spray assay on squash; design: key: A: 90-100; B: 80-89; C: 70-79; D: 60-69; E: 50-59; F: Less than 50; G: Inactive; H: Not tested; conditions: Corrected % Control (Abbott), 3 days after spray
Experimental: Insecticidal Test for Cotton Aphid (Aphis gossypii) in Foliar Spray Assay Squash with fully expanded cotyledon leaves were trimmed to one cotyledon per plant and infested with cotton aphid (wingless adult and nymph) 1 day prior to chemical application. Each plant was examined before chemical application to ensure proper infestation (ca. 30-70 aphids per plant). Compounds (2 mg) were dissolved in 2 ml of acetone:methanol (1:1) solvent, forming stock solutions of 1000 ppm. The stock solutions were diluted 5× with 0.025% Tween 20 in H2O to obtain a solution at 200 ppm. Lower concentrations (50, 12.5, 3.125, 0.781 and 0.195 ppm) were prepared by making sequential 4× dilutions from the 200 ppm solution with a diluent consisting 80 parts of 0.025% Tween 20 in H2O and 20 parts of acetone:methanol (1:1). A hand-held Devilbiss sprayer was used to apply the spray solutions until runoff to both sides of the squash cotyledon leaves. Four plants (4 replications) were used for each concentration of each compound. Reference plants (solvent check) were sprayed with the diluent only. Treated plants were held in a holding room for 3 days at approximately 23° C. and 40% RH before the number of live aphids on each plant was recorded. Insecticidal activity was measured by Corrected % Control using Abbott's correction formula and presented in Table 1: Corrected % Control=100*(X−Y)/X • where X=No. of live aphids on solvent check plants • Y=No. of live aphids on treated plants

[2] = tested on: Green Peach Aphid (Myzus persicae); assay: Insecticidal test for green peach aphid in foliar spray assay on cabbage; design: key: A: 90-100; B: 80-89; C: 70-79; D: 60-69; E: 50-59; F: Less than 50; G: Inactive; H: Not tested; conditions: Corrected % Control (Abbott), three days after spray
Experimental: Insecticidal Test for Green Peach Aphid (Myzus persicae) in Foliar Spray Assay Cabbage seedlings grown in 3-inch pots, with 2-3 small (3-5 cm) true leaves, were used as test substrate. The seedlings were infested with 20-50 green peach aphids (wingless adult and nymph) 2-3 days prior to chemical application. Four seedlings were used for each treatment. Compounds (2 mg) were dissolved in 2 ml of acetone:methanol (1:1) solvent, forming stock solutions of 1000 ppm. The stock solutions were diluted 5× with 0.025% Tween 20 in H2O to obtain a solution at 200 ppm. Lower concentrations (50, 12.5, 3.125 and 0.781 ppm) were prepared by making sequential 4× dilutions from the 200 ppm solution with a diluent consisting 80 parts of 0.025% Tween 20 in H2O and 20 parts of acetone:methanol (1:1). A hand-held Devilbiss sprayer was used for spraying a solution to both sides of cabbage leaves until runoff. Reference plants (solvent check) were sprayed with the diluent only. Treated plants were held in a holding room for three days at approximately 23° C. and 40% RH prior to grading. Evaluation was conducted by counting the number of live aphids per plant under a microscope. Insecticidal activity was measured by using Abbott's correction formula: Corrected % Control=100*(X−Y)/X • where X=No. of live aphids on solvent check plants • Y=No. of live aphids on treated plants

[3] = tested on: Sweet Potato Whitefly (Bemisia tabaci); assay: Insecticidal test for sweet potato whitefly in foliar spray assay on cotton; conditions: live large nymphs counted 12 days after spray of egg-infested leaves
Excerpt: Insecticidal Test for Sweet Potato Whitefly (Bemisia tabaci) in Foliar Spray Assay This test was designed to measure the capability of whitefly eggs and/or young nymphs to develop to large nymphs. Cotton seedlings at the growth stage of one or two expanding true leaf were trimmed so that only the first true leaf remained (cotyledon leaves were also removed). The plants were pre-infested with sweet potato whitefly eggs by keeping plants next to the colony-keeping plants for two days. The infested plants were carefully checked for presence of similar egg density before use in the insecticidal tests. Master solutions of test compounds at 1000 ppm were prepared in acetone: methanol (1:1). The 12.5 ppm spray solutions were then made by diluting 0.188 mL of the master solution with 14.812 ml of 0.025% Tween 20 in water. The lower concentrations were made by diluting the 12.5 ppm spray solution with a diluent consisting 98.75 parts of 0.025% Tween 20 in water and 1.25 parts of acetone:methanol (1:1). The diluent was used as solvent control. The test solutions were sprayed with a hand-held Devilbiss sprayer until runoff to both sides of the infested cotton leaves. Four plants (4 replications) were used for each treatment. Treated plants were held in a holding room for 12 days at approximately 23° C. and 40% RH before evaluation. To evaluate the efficacy of the compounds, the number of live large nymphs in an area of 1 square inch on the lower surface of the treated cotton leaves was counted under a microscope. Insecticidal activity was determined by Corrected % Control using Abbott's correction formula and presented in Table 3: Corrected % Control=100*(X−Y)/X • where X=No. of live large nymphs on solvent check plants • Y=No. of live large nymphs on treated plants

[4] = tested on: Brown Planthopper (Nilaparvata lugens); assay: Root-uptake systemic assay on rice, brown planthopper; conditions: 10 ppm in water of rice seedlings, 3rd instar nymphs, mortality observed at 2 and 6 days (day of tabled value not stated)
Experimental: (§1) Insecticidal Test for Brown Planthopper (Nilaparvata lugens) and Green Leafhopper (Nephotettix sp.) A root-uptake systemic assay was performed on both brown planthopper and green leafhopper. Four-week-old rice seedlings were submerged in 3-cm depth of water in the bottom portion (high 5 cm, diameter 3 cm) of a 2-part glass cylinder (high 18 cm, diameter 3 cm). A metal screen was used to hold the seedlings within the bottom portion. Scotch tape was used to bind the two portions of the cylinder after setting up the seedlings. A metal cap was used to cover the cylinder. There were 4 cylinders for each treatment. The test compound was dissolved in acetone to make a 10,000 ppm stock solution. The stock solution was incorporated at final test concentrations of 10 ppm in the water in which rice seedlings were submerged. Five laboratory-reared 3rd instar nymphs of brown planthopper or green leafhopper were introduced into each cylinder 3 hr after insecticide application. The treated test units were kept in a growth chamber with conditions set as followings: Temperature 28±0.5° C.; Relative humidity 70±0.5%; Photoperiod […].

[5] = tested on: Green Leafhopper (Nephotettix sp.); assay: Root-uptake systemic assay on rice, green leafhopper; conditions: 10 ppm in water of rice seedlings, 3rd instar nymphs, mortality observed at 2 and 6 days (day of tabled value not stated)
Experimental: as §1

## CS(=O)(=NC#N)C1(c2ccc(C(F)(F)F)nc2)CC1 (stereo not drawn) [Compound 1, methyl(oxido) {1-[6-(trifluoromethyl)pyridin-3-yl]cyclopropyl}-λ^4-sulfanylidenecyanamide]
[1]; 0.78 ppm
  % Control at ppm, against cotton aphid on squash (foliar spray): A (90-100)
[1]; 3.13 ppm
  % Control at ppm, against cotton aphid on squash (foliar spray): A (90-100)
[1]; 12.5 ppm
  % Control at ppm, against cotton aphid on squash (foliar spray): A (90-100)
[1]; 50 ppm
  % Control at ppm, against cotton aphid on squash (foliar spray): A (90-100)
[2]; 0.78 ppm
  % Control at ppm, against green peach aphid on cabbage (foliar spray): F (Less than 50)
[2]; 3.13 ppm
  % Control at ppm, against green peach aphid on cabbage (foliar spray): B (80-89)
[2]; 12.5 ppm
  % Control at ppm, against green peach aphid on cabbage (foliar spray): A (90-100)
[2]; 50 ppm
  % Control at ppm, against green peach aphid on cabbage (foliar spray): A (90-100)
[2]; 200 ppm
  % Control at ppm, against green peach aphid on cabbage (foliar spray): A (90-100)

## CS(=O)(=NC#N)C1(c2ccc(Cl)nc2)CC1 (stereo not drawn) [Compound 2, methyl(oxido) [1-(6-chloropyridin-3-yl)cyclopropyl]-λ^4-sulfanylidenecyanamide]
[1]; 0.78 ppm
  % Control at ppm, against cotton aphid on squash (foliar spray): A (90-100)
[1]; 3.13 ppm
  % Control at ppm, against cotton aphid on squash (foliar spray): A (90-100)
[2]; 0.78 ppm
  % Control at ppm, against green peach aphid on cabbage (foliar spray): D (60-69)
[2]; 3.13 ppm
  % Control at ppm, against green peach aphid on cabbage (foliar spray): A (90-100)
[3]; 0.781 ppm
  % Control at ppm, against sweet potato whitefly on cotton, foliar spray: F (Less than 50)
[3]; 3.125 ppm
  % Control at ppm, against sweet potato whitefly on cotton, foliar spray: E (50-59)
[3]; 12.500 ppm
  % Control at ppm, against sweet potato whitefly on cotton, foliar spray: C (70-79)
[4]
  % Systemic Control at 10 ppm on rice, Brown Planthopper: E (50-59)
[5]
  % Systemic Control at 10 ppm on rice, Green Leafhopper: B (80-89)

## CS(=O)(=NC#N)C1(c2ccc(Cl)nc2)CCC1 (stereo not drawn) [Compound 3, methyl(oxido)[1-(6-chloropyridin-3-yl)cyclobutyl]-λ^4-sulfanylidenecyanamide]
[1]; 50 ppm
  % Control at ppm, against cotton aphid on squash (foliar spray): A (90-100)

## CS(=O)(=NC#N)C1(c2ccc(Cl)nc2)CCCC1 (stereo not drawn) [Compound 4, methyl(oxido)[1-(6-chloropyridin-3-yl)cyclopentyl]-λ^4-sulfanylidenecyanamide]
[1]; 50 ppm
  % Control at ppm, against cotton aphid on squash (foliar spray): A (90-100)

## CS(=O)(=NC#N)C1(c2ccc(Cl)nc2)CCCCC1 (stereo not drawn) [Compound 5, methyl(oxido)[1-(6-chloropyridin-3-yl)cyclohexyl]-λ^4-sulfanylidenecyanamide]
[1]; 0.78 ppm
  % Control at ppm, against cotton aphid on squash (foliar spray): G
[1]; 3.13 ppm
  % Control at ppm, against cotton aphid on squash (foliar spray): A (90-100)
[1]; 12.5 ppm
  % Control at ppm, against cotton aphid on squash (foliar spray): A (90-100)
[1]; 50 ppm
  % Control at ppm, against cotton aphid on squash (foliar spray): A (90-100)

## CS(=O)(=NC#N)C1(c2ccc(Cl)nc2)CCOCC1 (stereo not drawn) [Compound 6, methyl(oxido)[4-(6-chloropyridin-3-yl)tetra hydro-pyran-4-yl]-λ^4-sulfanylidenecyanamide]
[1]; 0.78 ppm
  % Control at ppm, against cotton aphid on squash (foliar spray): A (90-100)
[1]; 3.13 ppm
  % Control at ppm, against cotton aphid on squash (foliar spray): A (90-100)
[1]; 12.5 ppm
  % Control at ppm, against cotton aphid on squash (foliar spray): A (90-100)
[1]; 50 ppm
  % Control at ppm, against cotton aphid on squash (foliar spray): A (90-100)
[2]; 0.78 ppm
  % Control at ppm, against green peach aphid on cabbage (foliar spray): G
[2]; 3.13 ppm
  % Control at ppm, against green peach aphid on cabbage (foliar spray): G
[2]; 12.5 ppm
  % Control at ppm, against green peach aphid on cabbage (foliar spray): G
[2]; 50 ppm
  % Control at ppm, against green peach aphid on cabbage (foliar spray): G
[2]; 200 ppm
  % Control at ppm, against green peach aphid on cabbage (foliar spray): A (90-100)
